In PMC9005681, “Use of AD Informer Set compounds to explore validity of novel targets in Alzheimer's disease pathology” (Alzheimer's & Dementia : Translational Research & Clinical …, 2022):

Experiments:
Assay in all cases: PDSP GPCR panel primary binding assays at 10 μM
[1] = target: T1, cloned human or rodent CNS receptors, channels, and transporters (PDSP panel) (Homo sapiens, UniProt P14416); details: Receptor D2, primary assay, 10 μM
T1 construct: expressed in transfected cells
In short: (§1)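 Secondary binding curves (11 points, triplicate) were run at targets where the 10 μM primary screen, done in quadruplicate, displaced over 50% of radio-labelled standard ligand on average. Primary screening covered 46–47 cloned human or rodent CNS targets; H3, PBR and GABAA were not followed up.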

[2] = target: T2, cloned human or rodent CNS receptors, channels, and transporters (PDSP panel) (Homo sapiens, UniProt P28335); details: Receptor 5-HT2C, primary assay, 10 μM
T2 construct: expressed in transfected cells
T2 sequence (P28335 33-458): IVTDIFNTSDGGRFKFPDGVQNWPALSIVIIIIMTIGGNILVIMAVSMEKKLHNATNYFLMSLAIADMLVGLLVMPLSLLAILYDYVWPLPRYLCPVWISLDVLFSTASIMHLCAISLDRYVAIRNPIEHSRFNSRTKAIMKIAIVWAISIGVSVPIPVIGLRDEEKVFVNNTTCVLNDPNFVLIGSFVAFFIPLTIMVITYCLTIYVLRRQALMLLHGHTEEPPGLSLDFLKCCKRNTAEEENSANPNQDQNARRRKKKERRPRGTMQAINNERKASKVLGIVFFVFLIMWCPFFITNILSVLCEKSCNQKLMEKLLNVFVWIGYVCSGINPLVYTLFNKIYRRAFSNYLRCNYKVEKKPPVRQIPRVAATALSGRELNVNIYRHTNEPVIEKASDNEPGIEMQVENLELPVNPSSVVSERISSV
In short: as §1

[3] = target: T3, cloned human or rodent CNS receptors, channels, and transporters (PDSP panel) (Homo sapiens, UniProt Q01959); details: DAT, primary assay
T3 construct: expressed in transfected cells
In short: as §1

[4] = tested on: cloned human or rodent CNS receptors, channels, and transporters (PDSP panel); details: primary assay
In short: as §1

[5] = target: T4, cloned human or rodent CNS receptors, channels, and transporters (PDSP panel) (Homo sapiens, UniProt P35462); details: D3, primary assay
T4 construct: expressed in transfected cells
In short: as §1

[6] = target: T5, cloned human or rodent CNS receptors, channels, and transporters (PDSP panel) (Homo sapiens, UniProt P11229); details: M1, primary assay
T5 construct: expressed in transfected cells
T5 sequence (P11229 1-460): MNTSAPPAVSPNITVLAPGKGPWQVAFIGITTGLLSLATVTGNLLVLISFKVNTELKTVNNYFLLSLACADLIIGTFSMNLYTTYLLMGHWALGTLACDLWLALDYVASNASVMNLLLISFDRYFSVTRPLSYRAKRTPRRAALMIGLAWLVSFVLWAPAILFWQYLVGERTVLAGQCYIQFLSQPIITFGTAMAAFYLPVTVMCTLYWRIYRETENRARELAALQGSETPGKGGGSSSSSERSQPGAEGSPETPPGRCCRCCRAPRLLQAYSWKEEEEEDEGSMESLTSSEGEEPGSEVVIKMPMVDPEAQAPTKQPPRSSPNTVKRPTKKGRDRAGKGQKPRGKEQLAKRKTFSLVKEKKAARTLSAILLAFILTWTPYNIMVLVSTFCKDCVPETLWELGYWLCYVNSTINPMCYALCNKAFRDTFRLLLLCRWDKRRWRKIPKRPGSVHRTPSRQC
In short: as §1

[7] = Receptor BZP Rat Brain Site, 10 μM

T3 sequence (Q01959 whole entry): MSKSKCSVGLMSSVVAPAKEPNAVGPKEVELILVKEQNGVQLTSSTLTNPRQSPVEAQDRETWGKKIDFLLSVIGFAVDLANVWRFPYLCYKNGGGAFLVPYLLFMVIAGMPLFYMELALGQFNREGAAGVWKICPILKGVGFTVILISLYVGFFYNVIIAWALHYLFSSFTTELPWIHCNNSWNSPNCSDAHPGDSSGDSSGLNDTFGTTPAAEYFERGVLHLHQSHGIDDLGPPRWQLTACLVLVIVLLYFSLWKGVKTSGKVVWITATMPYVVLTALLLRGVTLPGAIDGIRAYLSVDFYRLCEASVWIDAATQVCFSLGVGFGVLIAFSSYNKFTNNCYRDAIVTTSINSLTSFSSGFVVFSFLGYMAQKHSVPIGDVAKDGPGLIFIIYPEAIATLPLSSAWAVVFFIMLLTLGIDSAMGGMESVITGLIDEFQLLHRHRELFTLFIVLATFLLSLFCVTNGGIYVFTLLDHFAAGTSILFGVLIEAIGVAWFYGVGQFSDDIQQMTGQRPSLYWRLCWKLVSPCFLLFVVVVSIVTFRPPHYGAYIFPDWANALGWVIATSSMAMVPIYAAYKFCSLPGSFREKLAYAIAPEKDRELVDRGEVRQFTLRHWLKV
T4 sequence (P35462 whole entry): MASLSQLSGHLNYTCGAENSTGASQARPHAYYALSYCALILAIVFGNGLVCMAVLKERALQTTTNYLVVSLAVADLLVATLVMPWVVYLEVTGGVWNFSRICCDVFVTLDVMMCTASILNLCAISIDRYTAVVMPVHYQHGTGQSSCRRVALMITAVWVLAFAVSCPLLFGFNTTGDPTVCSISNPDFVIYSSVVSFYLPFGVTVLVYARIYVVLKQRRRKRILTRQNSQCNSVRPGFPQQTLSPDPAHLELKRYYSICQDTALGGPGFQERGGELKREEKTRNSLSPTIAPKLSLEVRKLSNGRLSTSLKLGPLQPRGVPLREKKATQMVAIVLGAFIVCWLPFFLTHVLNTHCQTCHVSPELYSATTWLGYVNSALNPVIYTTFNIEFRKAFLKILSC
T1 sequence (P14416 whole entry): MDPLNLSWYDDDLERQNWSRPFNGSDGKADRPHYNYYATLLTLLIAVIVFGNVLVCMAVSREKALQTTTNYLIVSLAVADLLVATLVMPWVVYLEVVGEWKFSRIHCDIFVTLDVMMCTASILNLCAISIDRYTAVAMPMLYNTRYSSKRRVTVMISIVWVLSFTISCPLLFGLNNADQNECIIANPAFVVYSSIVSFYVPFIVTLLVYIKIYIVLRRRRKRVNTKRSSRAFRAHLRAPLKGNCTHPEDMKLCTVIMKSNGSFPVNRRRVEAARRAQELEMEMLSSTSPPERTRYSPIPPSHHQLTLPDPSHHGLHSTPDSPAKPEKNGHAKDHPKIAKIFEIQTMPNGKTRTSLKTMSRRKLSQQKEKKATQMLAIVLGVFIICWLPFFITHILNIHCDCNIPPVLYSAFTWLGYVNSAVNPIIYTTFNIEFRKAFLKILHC

O=c1oc2ccccc2cc1-c1cn2cc(Cc3ccc(F)cc3)sc2n1 [UNC10302680A, iMDK]
Inhibition 1 [1]: 11.41% | Inhibition 2 [1]: -7.84% | Inhibition 3 [1]: -2.59% | Inhibition 4 [1]: 7.52% | Mean % ([1]; mean of Inhibition 1-4): 2.13% | Inhibition 1 [2]: 16.2% | Inhibition 2 [2]: -2.94% | Inhibition 3 [2]: -21.1% | Inhibition 4 [2]: -2.94% | Mean % ([2]; mean of Inhibition 1-4): -2.7% | Mean % ([3]; mean inhibition): 24.58% | Inhibition 1 ([3]; replicate 1): 19.55% | Inhibition 2 ([3]; replicate 2): 22.26% | Inhibition 3 ([3]; replicate 3): 29.6% | Inhibition 4 ([3]; replicate 4): 26.9% | Mean % ([4]; H3, mean inhibition): 41.02% | Inhibition 1 ([4]; H3, replicate 1): 20.04% | Inhibition 2 ([4]; H3, replicate 2): 32.28% | Inhibition 3 ([4]; H3, replicate 3): 47.14% | Inhibition 4 ([4]; H3, replicate 4): 64.63% | Mean % ([4]; H4, mean inhibition): 39.36% | Inhibition 1 ([4]; H4, replicate 1): 11.58% | Inhibition 2 ([4]; H4, replicate 2): 47.34% | Inhibition 3 ([4]; H4, replicate 3): 40.86% | Inhibition 4 ([4]; H4, replicate 4): 57.67% | Inhibition 1 ([4]; Receptor Alpha1A, 10 μM): -21.6% | Inhibition 2 ([4]; Receptor Alpha1A, 10 μM): -1.59% | Inhibition 3 ([4]; Receptor Alpha1A, 10 μM): -0.84% | Inhibition 4 ([4]; Receptor Alpha1A, 10 μM): -9.82% | Mean % ([4]; Receptor Alpha1A, 10 μM, mean of Inhibition 1-4): -8.46% | Inhibition 1 ([4]; Receptor Alpha2A, 10 μM): 9.97% | Inhibition 2 ([4]; Receptor Alpha2A, 10 μM): 11.68% | Inhibition 3 ([4]; Receptor Alpha2A, 10 μM): -0.74% | Inhibition 4 ([4]; Receptor Alpha2A, 10 μM): -29.15% | Mean % ([4]; Receptor Alpha2A, 10 μM, mean of Inhibition 1-4): -2.06% | Inhibition 1 ([4]; Receptor Alpha2C, 10 μM): 20.53% | Inhibition 2 ([4]; Receptor Alpha2C, 10 μM): 3.75% | Inhibition 3 ([4]; Receptor Alpha2C, 10 μM): 5.64% | Inhibition 4 ([4]; Receptor Alpha2C, 10 μM): 4% | Mean % ([4]; Receptor Alpha2C, 10 μM, mean of Inhibition 1-4): 8.48% | Inhibition 1 [4, 7]: -12.35% | Inhibition 2 [4, 7]: -8.18% | Inhibition 3 [4, 7]: -22.2% | Inhibition 4 [4, 7]: 3.1% | Mean % ([4]; Receptor BZP Rat Brain Site, 10 μM, mean of Inhibition 1-4): -9.91% | Inhibition 1 ([4]; Receptor DOR, 10 μM): -22.02% | Inhibition 2 ([4]; Receptor DOR, 10 μM): -14.61% | Inhibition 3 ([4]; Receptor DOR, 10 μM): -13.89% | Inhibition 4 ([4]; Receptor DOR, 10 μM): -8.29% | Mean % ([4]; Receptor DOR, 10 μM, mean of Inhibition 1-4): -14.7% | Inhibition 1 ([4]; Receptor Sigma 1, 10 μM): 7.22% | Inhibition 2 ([4]; Receptor Sigma 1, 10 μM): -7.42% | Inhibition 3 ([4]; Receptor Sigma 1, 10 μM): 1.64% | Inhibition 4 ([4]; Receptor Sigma 1, 10 μM): 5.36% | Mean % ([4]; Receptor Sigma 1, 10 μM, mean of Inhibition 1-4): 1.7% | Inhibition 1 ([4]; Receptor Sigma 2, 10 μM): 14.42% | Inhibition 2 ([4]; Receptor Sigma 2, 10 μM): 15.13% | Inhibition 3 ([4]; Receptor Sigma 2, 10 μM): 40.23% | Inhibition 4 ([4]; Receptor Sigma 2, 10 μM): 21.82% | Mean % ([4]; Receptor Sigma 2, 10 μM, mean of Inhibition 1-4): 22.9% | Mean % ([5]; mean inhibition): -15.93% | Inhibition 1 ([5]; replicate 1): -10.82% | Inhibition 2 ([5]; replicate 2): -16.8% | Inhibition 3 ([5]; replicate 3): -16.41% | Inhibition 4 ([5]; replicate 4): -19.69% | Mean % ([6]; mean inhibition): 7.01% | Inhibition 1 ([6]; replicate 1): 16.84% | Inhibition 2 ([6]; replicate 2): 2.54% | Inhibition 3 ([6]; replicate 3): 0.66% | Inhibition 4 ([6]; replicate 4): 8%
